# Experimental data published in ChEMBL document CHEMBL5649169 (ChemMedChem, 2018).
# Experiments:
# [1] = species on record: Homo sapiens
# [2] = target: Cyclin-A2 (Homo sapiens) (UniProt P20248)
# [3] = target: High mobility group protein B1 (Homo sapiens) (UniProt P09429)
# [4] = target: Ubiquitin-protein ligase E3C (Homo sapiens) (UniProt Q15386)
# [5] = target: Aminoacyl tRNA synthase complex-interacting multifunctional protein 1 (Homo sapiens) (UniProt Q12904)
# [6] = target: ATP-citrate synthase (Homo sapiens) (UniProt P53396)
# [7] = target: Septin-7 (Homo sapiens) (UniProt Q16181)
# [8] = target: Calcium/calmodulin-dependent protein kinase type II subunit beta (Homo sapiens) (UniProt Q13554)
# [9] = target: Myosin-9 (Homo sapiens) (UniProt P35579)
# [10] = target: General transcription and DNA repair factor IIH helicase subunit XPD (Homo sapiens) (UniProt P18074)
# [11] = target: Mitogen-activated protein kinase 9 (Homo sapiens) (UniProt P45984)
# [12] = target: Protein YIPF5 (Homo sapiens) (UniProt Q969M3)
# [13] = target: NADH dehydrogenase [ubiquinone] 1 alpha subcomplex subunit 5 (Homo sapiens) (UniProt Q16718)
# [14] = target: Insulin-like growth factor 2 mRNA-binding protein 1 (Homo sapiens) (UniProt Q9NZI8)
# [15] = target: Histone deacetylase 1 (Homo sapiens) (UniProt Q13547)
# [16] = target: Non-receptor tyrosine-protein kinase TYK2 (Homo sapiens) (UniProt P29597)
# [17] = target: Histone H1.0 (Homo sapiens) (UniProt P07305)
# [18] = target: Probable ATP-dependent RNA helicase DDX17 (Homo sapiens) (UniProt Q92841)
# [19] = target: Protein RER1 (Homo sapiens) (UniProt O15258)
# [20] = target: Thioredoxin (Homo sapiens) (UniProt P10599)
# [21] = target: Cancer-related nucleoside-triphosphatase (Homo sapiens) (UniProt Q9BSD7)
# [22] = target: Acidic leucine-rich nuclear phosphoprotein 32 family member A (Homo sapiens) (UniProt P39687)
# [23] = target: CDGSH iron-sulfur domain-containing protein 2 (Homo sapiens) (UniProt Q8N5K1)
# [24] = target: Ras-related protein Rab-14 (Homo sapiens) (UniProt P61106)
# [25] = target: Cytochrome c oxidase subunit 5A, mitochondrial (Homo sapiens) (UniProt P20674)
# [26] = target: Lysosome-associated membrane glycoprotein 2 (Homo sapiens) (UniProt P13473)
# [27] = target: Receptor-type tyrosine-protein kinase FLT3 (Homo sapiens) (UniProt P36888)
# [28] = target: Tyrosine-protein kinase Fyn (Homo sapiens) (UniProt P06241)
# [29] = target: T-complex protein 1 subunit epsilon (Homo sapiens) (UniProt P48643)
# [30] = target: Serine/arginine-rich splicing factor 6 (Homo sapiens) (UniProt Q13247)
# [31] = target: Tricarboxylate transport protein, mitochondrial (Homo sapiens) (UniProt P53007)
# [32] = target: Glyceraldehyde-3-phosphate dehydrogenase (Homo sapiens) (UniProt P04406)
# [33] = target: Eukaryotic translation initiation factor 4H (Homo sapiens) (UniProt Q15056)
# [34] = target: Protein SGT1 homolog (Homo sapiens) (UniProt Q9Y2Z0)
# [35] = target: Elongation factor 1-delta (Homo sapiens) (UniProt P29692)
# [36] = target: ATP-binding cassette sub-family D member 3 (Homo sapiens) (UniProt P28288)
# [37] = target: Coatomer subunit alpha (Homo sapiens) (UniProt P53621)
# [38] = target: Protein kinase C beta type (Homo sapiens) (UniProt P05771)
# [39] = target: GSK3B-interacting protein (Homo sapiens) (UniProt Q9P0R6)
# [40] = target: X-ray repair cross-complementing protein 5 (Homo sapiens) (UniProt P13010)
# [41] = target: Small ribosomal subunit protein uS19 (Homo sapiens) (UniProt P62841)
# [42] = target: ATPase family AAA domain-containing protein 3A (Homo sapiens) (UniProt Q9NVI7)
# [43] = target: Rab-like protein 3 (Homo sapiens) (UniProt Q5HYI8)
# [44] = target: Peptidyl-prolyl cis-trans isomerase A (Homo sapiens) (UniProt P62937)
# [45] = target: Cyclin-dependent kinase 1 (Homo sapiens) (UniProt P06493)
# [46] = target: Growth hormone-inducible transmembrane protein (Homo sapiens) (UniProt Q9H3K2)
# Also: assay method not described here.
# Sequence of Growth hormone-inducible transmembrane protein (Homo sapiens) (Q9H3K2 whole entry): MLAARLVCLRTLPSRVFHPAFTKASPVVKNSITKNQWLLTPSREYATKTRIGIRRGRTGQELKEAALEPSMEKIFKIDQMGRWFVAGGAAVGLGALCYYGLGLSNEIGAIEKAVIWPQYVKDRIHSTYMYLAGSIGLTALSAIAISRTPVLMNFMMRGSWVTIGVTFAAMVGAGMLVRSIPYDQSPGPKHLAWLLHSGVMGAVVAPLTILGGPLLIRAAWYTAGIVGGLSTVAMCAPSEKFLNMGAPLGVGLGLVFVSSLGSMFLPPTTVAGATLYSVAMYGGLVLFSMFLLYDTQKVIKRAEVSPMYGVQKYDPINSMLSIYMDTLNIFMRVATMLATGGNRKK
# Sequence of CDGSH iron-sulfur domain-containing protein 2 (Homo sapiens) (Q8N5K1 whole entry, the tested form may be a part): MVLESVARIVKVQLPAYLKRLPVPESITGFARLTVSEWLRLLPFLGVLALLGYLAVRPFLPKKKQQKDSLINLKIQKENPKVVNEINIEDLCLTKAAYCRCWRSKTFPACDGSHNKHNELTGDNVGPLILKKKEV
# Sequence of Insulin-like growth factor 2 mRNA-binding protein 1 (Homo sapiens) (Q9NZI8 whole entry): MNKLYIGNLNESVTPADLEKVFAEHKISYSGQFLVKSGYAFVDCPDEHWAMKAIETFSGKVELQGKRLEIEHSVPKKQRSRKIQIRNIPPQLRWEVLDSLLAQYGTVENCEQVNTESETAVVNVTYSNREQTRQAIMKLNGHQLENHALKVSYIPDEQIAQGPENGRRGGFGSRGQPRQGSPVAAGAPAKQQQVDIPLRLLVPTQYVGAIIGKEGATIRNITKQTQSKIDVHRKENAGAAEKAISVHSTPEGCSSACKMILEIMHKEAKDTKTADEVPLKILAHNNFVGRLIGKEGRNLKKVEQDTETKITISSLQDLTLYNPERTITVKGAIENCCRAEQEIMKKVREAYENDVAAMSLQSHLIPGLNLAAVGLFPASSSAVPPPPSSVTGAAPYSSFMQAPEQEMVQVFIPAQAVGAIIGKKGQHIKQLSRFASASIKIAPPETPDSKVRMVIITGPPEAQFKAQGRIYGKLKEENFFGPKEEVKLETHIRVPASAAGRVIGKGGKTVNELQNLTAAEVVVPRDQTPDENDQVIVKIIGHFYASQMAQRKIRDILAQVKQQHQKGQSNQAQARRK
# Sequence of Non-receptor tyrosine-protein kinase TYK2 (Homo sapiens) (P29597 whole entry): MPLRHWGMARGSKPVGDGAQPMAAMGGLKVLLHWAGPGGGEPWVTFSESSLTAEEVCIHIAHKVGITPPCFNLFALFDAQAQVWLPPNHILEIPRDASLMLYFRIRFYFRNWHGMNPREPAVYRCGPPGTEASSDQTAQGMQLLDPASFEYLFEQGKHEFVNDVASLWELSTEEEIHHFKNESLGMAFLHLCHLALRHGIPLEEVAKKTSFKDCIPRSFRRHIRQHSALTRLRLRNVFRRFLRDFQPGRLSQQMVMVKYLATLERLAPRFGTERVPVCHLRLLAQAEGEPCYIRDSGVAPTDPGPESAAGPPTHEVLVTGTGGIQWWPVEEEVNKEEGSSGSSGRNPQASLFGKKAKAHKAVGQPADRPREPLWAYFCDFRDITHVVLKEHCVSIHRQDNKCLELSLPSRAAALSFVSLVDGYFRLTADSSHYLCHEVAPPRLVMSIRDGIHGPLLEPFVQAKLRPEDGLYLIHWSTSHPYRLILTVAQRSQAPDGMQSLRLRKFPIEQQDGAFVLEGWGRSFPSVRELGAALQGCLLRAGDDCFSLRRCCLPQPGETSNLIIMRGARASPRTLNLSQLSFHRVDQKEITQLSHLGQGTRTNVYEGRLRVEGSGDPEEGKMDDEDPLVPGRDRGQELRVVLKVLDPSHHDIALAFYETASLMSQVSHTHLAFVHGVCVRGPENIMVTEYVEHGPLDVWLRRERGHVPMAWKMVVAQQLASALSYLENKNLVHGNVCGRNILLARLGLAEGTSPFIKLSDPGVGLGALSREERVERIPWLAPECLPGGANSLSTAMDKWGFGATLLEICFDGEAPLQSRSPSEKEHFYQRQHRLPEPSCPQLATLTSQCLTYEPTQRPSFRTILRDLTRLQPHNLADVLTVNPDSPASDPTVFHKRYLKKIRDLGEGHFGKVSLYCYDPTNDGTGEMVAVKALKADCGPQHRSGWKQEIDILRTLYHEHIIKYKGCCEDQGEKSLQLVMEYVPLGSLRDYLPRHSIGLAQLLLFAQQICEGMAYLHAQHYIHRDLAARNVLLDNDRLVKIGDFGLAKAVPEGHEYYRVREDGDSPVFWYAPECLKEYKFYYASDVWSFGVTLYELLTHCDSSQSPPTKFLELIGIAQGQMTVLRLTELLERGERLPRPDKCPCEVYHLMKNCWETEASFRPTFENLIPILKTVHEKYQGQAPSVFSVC
# Sequence of Acidic leucine-rich nuclear phosphoprotein 32 family member A (Homo sapiens) (P39687 whole entry, the tested form may be a part): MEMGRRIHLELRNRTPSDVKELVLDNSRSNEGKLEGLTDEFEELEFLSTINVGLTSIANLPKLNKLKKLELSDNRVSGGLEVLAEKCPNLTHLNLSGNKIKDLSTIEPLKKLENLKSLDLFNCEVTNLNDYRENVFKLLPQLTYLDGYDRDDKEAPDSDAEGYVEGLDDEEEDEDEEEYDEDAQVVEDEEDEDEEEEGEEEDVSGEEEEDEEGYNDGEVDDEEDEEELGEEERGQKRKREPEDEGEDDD
# Sequence of Histone H1.0 (Homo sapiens) (P07305 whole entry, looked up): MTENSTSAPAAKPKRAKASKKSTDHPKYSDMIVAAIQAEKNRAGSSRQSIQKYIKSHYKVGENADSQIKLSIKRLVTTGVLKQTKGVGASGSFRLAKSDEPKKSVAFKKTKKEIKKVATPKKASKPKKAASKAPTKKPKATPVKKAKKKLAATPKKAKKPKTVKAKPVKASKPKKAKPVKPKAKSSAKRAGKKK
# Sequence of High mobility group protein B1 (Homo sapiens) (P09429 whole entry): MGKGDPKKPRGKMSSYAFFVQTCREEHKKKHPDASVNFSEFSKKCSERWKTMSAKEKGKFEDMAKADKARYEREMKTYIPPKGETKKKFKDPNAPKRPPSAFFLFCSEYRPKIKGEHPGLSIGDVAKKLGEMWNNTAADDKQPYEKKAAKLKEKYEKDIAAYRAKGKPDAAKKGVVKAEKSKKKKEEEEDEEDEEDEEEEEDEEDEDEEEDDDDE
# Sequence of Tyrosine-protein kinase Fyn (Homo sapiens) (P06241 2-537 limits assumed): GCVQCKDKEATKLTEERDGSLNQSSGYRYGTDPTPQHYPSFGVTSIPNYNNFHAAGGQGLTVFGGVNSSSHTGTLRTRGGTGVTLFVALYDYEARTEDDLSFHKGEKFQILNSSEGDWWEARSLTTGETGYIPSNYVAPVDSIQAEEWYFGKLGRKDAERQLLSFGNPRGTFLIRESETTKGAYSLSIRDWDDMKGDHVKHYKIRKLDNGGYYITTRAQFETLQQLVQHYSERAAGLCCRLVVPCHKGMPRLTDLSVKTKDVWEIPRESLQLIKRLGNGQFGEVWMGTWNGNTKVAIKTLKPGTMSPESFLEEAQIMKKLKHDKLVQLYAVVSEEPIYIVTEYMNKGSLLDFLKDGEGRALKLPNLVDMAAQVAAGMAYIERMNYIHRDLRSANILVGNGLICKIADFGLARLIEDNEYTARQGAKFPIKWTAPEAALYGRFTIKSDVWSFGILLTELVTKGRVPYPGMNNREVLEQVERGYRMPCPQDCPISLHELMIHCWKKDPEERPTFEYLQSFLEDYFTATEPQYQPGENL
# Sequence of Tricarboxylate transport protein, mitochondrial (Homo sapiens) (P53007 14-311 limits assumed): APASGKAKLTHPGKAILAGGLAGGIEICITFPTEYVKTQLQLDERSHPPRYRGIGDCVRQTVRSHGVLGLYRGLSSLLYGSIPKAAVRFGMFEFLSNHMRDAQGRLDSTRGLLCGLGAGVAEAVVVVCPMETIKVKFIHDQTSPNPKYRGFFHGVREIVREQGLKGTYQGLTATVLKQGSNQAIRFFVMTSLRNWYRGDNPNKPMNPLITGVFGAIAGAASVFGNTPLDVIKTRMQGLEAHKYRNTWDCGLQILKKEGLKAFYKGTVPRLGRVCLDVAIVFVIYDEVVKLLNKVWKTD
# Sequence of Protein YIPF5 (Homo sapiens) (Q969M3 whole entry): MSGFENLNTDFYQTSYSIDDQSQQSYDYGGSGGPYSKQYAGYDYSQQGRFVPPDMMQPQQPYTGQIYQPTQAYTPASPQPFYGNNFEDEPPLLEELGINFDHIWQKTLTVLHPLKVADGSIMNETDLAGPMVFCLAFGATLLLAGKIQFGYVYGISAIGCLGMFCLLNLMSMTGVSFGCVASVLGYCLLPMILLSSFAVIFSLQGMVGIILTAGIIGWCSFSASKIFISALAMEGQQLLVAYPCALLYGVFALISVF
# Sequence of Septin-7 (Homo sapiens) (Q16181 whole entry): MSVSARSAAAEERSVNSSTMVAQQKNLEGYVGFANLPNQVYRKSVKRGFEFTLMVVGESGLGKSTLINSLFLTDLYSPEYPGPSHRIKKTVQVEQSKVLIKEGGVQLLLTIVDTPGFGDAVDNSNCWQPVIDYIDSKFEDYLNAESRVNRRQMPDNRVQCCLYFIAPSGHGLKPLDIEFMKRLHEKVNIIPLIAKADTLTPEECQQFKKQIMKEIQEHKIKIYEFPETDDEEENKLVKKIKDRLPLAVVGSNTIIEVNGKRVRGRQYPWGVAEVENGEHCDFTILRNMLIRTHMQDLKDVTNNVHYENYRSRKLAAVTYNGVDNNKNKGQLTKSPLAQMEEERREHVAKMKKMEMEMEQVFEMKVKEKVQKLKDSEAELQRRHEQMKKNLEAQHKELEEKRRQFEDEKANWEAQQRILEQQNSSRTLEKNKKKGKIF
# Sequence of Cancer-related nucleoside-triphosphatase (Homo sapiens) (Q9BSD7 whole entry): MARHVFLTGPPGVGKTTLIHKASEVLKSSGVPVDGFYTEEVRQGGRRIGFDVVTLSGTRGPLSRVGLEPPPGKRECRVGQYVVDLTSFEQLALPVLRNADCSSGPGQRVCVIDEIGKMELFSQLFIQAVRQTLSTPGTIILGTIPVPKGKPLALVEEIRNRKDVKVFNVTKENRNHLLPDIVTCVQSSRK
# Sequence of Cyclin-dependent kinase 1 (Homo sapiens) (P06493 whole entry, looked up): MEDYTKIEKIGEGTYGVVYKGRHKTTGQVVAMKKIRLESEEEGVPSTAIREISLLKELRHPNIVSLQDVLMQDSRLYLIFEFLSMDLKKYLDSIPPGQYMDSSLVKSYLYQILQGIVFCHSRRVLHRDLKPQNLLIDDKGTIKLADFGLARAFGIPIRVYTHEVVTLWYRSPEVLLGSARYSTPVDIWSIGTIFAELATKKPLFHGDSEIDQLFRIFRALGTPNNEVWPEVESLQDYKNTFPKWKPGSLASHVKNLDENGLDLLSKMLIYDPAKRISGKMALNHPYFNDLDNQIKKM
structure (smiles),measurement,setting,value
Cc1ccc(C(=O)Nc2cccc(C(F)(F)F)c2)cc1Nc1nc(-c2cccnc2)nc2c1cnn2C,ED50,[1],2.74 µM
same,ED50,[2],4.89 µM
same,ED50,[3],3.01 µM
same,ED50,[4],0.0117 µM
same,ED50,[5],16.5 µM
same,ED50,[6],12.3 µM
same,ED50,[7],3.34 µM
same,ED50,[8],17.4 µM
same,ED50,[9],0.756 µM
same,ED50,[10],0.199 µM
same,ED50,[11],0.0588 µM
same,ED50,[12],1.94 µM
same,ED50,[13],5.05 µM
same,ED50,[14],0.115 µM
same,ED50,[15],5.81 µM
same,ED50,[16],69.7 µM
same,ED50,[17],0.753 µM
same,ED50,[18],0.126 µM
same,ED50,[19],78.2 µM
same,ED50,[20],13.1 µM
same,ED50,[21],844 µM
same,ED50,[22],2.29 µM
same,ED50,[23],3.1 µM
same,ED50,[24],2.88 µM
same,ED50,[25],3.62 µM
same,ED50,[26],0.0378 µM
same,ED50,[27],0.00514 µM
same,ED50,[28],4.1 µM
same,ED50,[29],0.000216 µM
same,ED50,[30],5.98 µM
same,ED50,[31],4.38 µM
same,ED50,[32],8.39 µM
same,ED50,[33],90.6 µM
same,ED50,[34],17.2 µM
same,ED50,[35],1.74 µM
same,ED50,[36],2.02 µM
same,ED50,[37],0.127 µM
same,ED50,[38],10.9 µM
same,ED50,[39],0.0291 µM
same,ED50,[40],0.0264 µM
same,ED50,[41],4.04 µM
same,ED50,[42],0.0089 µM
same,ED50,[43],4.04 µM
same,ED50,[44],0.396 µM
same,ED50,[45],3.8 µM
same,ED50,[46],0.00891 µM
Cc1ccc(C(=O)Nc2cccc(C(F)(F)F)c2)cc1Nc1nc(-c2cccnc2)nc2nn(C)cc12,ED50,[1],0.0747 µM
same,ED50,[2],0.586 µM
same,ED50,[3],0.0503 µM
same,ED50,[4],0.0836 µM
same,ED50,[5],0.0574 µM
same,ED50,[6],21.4 µM
same,ED50,[7],3.21 µM
same,ED50,[8],0.0059 µM
same,ED50,[9],0.0973 µM
same,ED50,[10],21.8 µM
same,ED50,[11],13.7 µM
same,ED50,[12],0.0595 µM
same,ED50,[13],0.253 µM
same,ED50,[14],0.0177 µM
same,ED50,[15],1.17 µM
same,ED50,[16],1.13 µM
same,ED50,[17],1.29 µM
same,ED50,[18],16.2 µM
same,ED50,[19],3.97 µM
same,ED50,[20],11.4 µM
same,ED50,[21],0.0608 µM
same,ED50,[22],12.4 µM
same,ED50,[23],0.0591 µM
same,ED50,[24],4.44 µM
same,ED50,[25],3250 µM
same,ED50,[26],1.72 µM
same,ED50,[27],16.7 µM
same,ED50,[28],2.07 µM
same,ED50,[29],0.0516 µM
same,ED50,[30],32.5 µM
same,ED50,[31],4.79 µM
same,ED50,[32],0.0602 µM
same,ED50,[33],10.8 µM
same,ED50,[34],4.08 µM
same,ED50,[35],0.0538 µM
same,ED50,[36],0.0289 µM
same,ED50,[37],0.652 µM
same,ED50,[38],0.875 µM
same,ED50,[39],1.81 µM
same,ED50,[40],10.3 µM
same,ED50,[41],0.0149 µM
same,ED50,[42],7.99 µM
same,ED50,[43],22.5 µM
same,ED50,[44],2.04 µM
same,ED50,[45],7.91 µM
same,ED50,[46],0.0192 µM
